Data taken from the NIST ThermoML archive (doi:10.1007/s10765-016-2104-7).
± gives the expanded uncertainty stated by the source.

Details: Liquid, Vibrating wire viscometry

viscosity (1373 K) [mPa·s]	viscosity (1423 K) [mPa·s]	viscosity (1473 K) [mPa·s]	viscosity (1523 K) [mPa·s]	viscosity (1573 K) [mPa·s]	viscosity (1623 K) [mPa·s]	viscosity (1673 K) [mPa·s]	viscosity (1273 K) [mPa·s]	viscosity (1323 K) [mPa·s]	SMILES	viscosity (873 K) [mPa·s]	viscosity (973 K) [mPa·s]	viscosity (1073 K) [mPa·s]
									[Sn] [tin]	1.253 ± 0.2	1.142 ± 0.3	1.087 ± 0.047
5.625 ± 0.65	5.47 ± 0.16	4.963 ± 0.36	4.764 ± 0.25	4.495 ± 0.32	4.276 ± 0.51	3.981 ± 0.57			[Au] [gold]			
2.812 ± 0.65	2.649 ± 0.33	2.54 ± 0.22	2.498 ± 0.46	2.399 ± 0.35	2.332 ± 0.39	2.214	3.52 ± 0.74	2.904 ± 0.45	[Ag] [silver]			
